Experimental data reported in patent US12662491B2 (Redona Therapeutics, Inc., priority 2020, dated 2026).
Where two headings read alike, the source gives them in different places.

Target: T1, Zcchc11 enzyme (Homo sapiens, UniProt Q5TAX3)
T1 construct: made in house; host or cells: HEK293 cells (Zcchc11); E. coli Rosetta II (LIN28A)
T1 sequence (Q5TAX3 212-1420): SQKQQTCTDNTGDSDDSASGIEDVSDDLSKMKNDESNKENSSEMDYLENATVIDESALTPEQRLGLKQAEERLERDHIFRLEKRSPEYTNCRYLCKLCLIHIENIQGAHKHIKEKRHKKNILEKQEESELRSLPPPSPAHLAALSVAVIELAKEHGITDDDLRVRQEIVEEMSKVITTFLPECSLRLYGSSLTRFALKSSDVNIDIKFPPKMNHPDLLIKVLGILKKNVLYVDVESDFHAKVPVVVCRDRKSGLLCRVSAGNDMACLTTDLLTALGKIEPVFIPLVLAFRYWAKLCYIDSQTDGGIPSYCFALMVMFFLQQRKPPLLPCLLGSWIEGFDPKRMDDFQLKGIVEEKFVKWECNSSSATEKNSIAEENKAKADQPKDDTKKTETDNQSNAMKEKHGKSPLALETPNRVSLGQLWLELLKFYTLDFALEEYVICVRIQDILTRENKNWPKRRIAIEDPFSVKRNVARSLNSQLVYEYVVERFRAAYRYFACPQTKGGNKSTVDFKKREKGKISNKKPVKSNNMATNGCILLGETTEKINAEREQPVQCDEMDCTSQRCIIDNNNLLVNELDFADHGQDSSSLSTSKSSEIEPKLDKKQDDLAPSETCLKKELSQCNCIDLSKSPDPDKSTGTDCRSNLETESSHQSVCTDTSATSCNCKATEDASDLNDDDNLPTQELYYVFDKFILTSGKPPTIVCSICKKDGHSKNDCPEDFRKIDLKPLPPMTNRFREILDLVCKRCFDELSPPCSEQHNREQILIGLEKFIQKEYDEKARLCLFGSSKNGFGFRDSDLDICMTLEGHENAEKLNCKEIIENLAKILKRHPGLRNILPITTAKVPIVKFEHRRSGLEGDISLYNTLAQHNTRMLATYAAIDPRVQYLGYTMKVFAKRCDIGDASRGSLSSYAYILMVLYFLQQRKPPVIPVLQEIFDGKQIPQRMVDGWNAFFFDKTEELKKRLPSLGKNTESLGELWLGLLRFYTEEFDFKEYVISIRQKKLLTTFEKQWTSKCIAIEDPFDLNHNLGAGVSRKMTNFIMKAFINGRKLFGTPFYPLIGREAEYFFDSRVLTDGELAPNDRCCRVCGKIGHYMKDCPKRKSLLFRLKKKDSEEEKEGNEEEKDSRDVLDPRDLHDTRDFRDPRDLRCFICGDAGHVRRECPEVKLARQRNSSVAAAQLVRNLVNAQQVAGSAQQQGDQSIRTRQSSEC
Assay: TUTase assay (Zcchc11 assay, Lin28a-dependent polyuridylation of pre-let-7)
Format: biochemical
Details: read-out: Potency Lin28a-dep Z11 IC50
Summary of the method: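 Potency is measured as inhibition of LIN28A-driven U-tail addition to 2 nM pre-let-7 by 0.2 nM HEK293-derived Zcchc11 fragment with 5 uM UTP at room temperature. Tail growth appears as fluorescein quenching by an annealing rhodamine-A20 probe.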

[1] = Lin28a-dependent Zcchc11 (Z11) TUTase assay
[2] = LIN28A 10 nM, Zcchc11 0.2 nM, 5′-fluorescein pre-let-7 miRNA 2 nM, UTP 5 uM, room temperature, 30 minutes pre-incubation
[3] = Lin28a-dependent Zcchc11 (Z11) TUTase activity

IC50 [1] [nM] | SMILES | also measured
≤ 1000 | COc1ccc(Cl)c(OC[C@H]2C[C@@H]3C[C@@H]3N2c2cc3c(cc2Cl)c(=O)c(C(=O)O)cn3-c2ccc(N3CC(N(C)C)C3)nc2)n1 [Example 661, 6-chloro-7-((1S,3R,5S)-3-(((3-chloro-6-methoxypyridin-2-yl)oxy)methyl)-2-azabicyclo[3.1.0]hexan-2-yl)-1-(6-(3-(dimethylamino)azetidin-1-yl)pyridin-3-yl)-4-oxo-1,4-dihydroquinoline-3-carboxylic acid] | –
– | CN(C)C1CN(c2ccc(-n3cc(C(=O)O)c(=O)c4cc(C#N)c(N5C6CCC5(COc5ncccc5F)CC6)cc43)cn2)C1 [Example 42, 6-cyano-1-(6-(3-(dimethylamino)azetidin-1-yl)pyridin-3-yl)-7-(1-(((3-fluoropyridin-2-yl)oxy)methyl)-7-azabicyclo[2.2.1]heptan-7-yl)-4-oxo-1,4-dihydroquinoline-3-carboxylic acid] | IC50 [2]: ≤ 1000 nM
≤ 1000 | CN(C)C1CN(c2ccc(-n3cc(C(=O)O)c(=O)c4cc(Cl)c(N5Cc6cccnc6[C@@H]5COc5ncccc5Cl)cc43)cn2)C1 [Example 597, (R)-6-chloro-7-(7-(((3-chloropyridin-2-yl)oxy)methyl)-5,7-dihydro-6H-pyrrolo[3,4-b]pyridin-6-yl)-1-(6-(3-(dimethylamino)azetidin-1-yl)pyridin-3-yl)-4-oxo-1,4-dihydroquinoline-3-carboxylic acid] | –
≤ 1000 | COc1ccc(C2C[C@H](COc3nc(OC)ccc3Cl)N(c3cc4c(cc3Cl)c(=O)c(C(=O)O)cn4-c3ccc(N4CC(N(C)C)C4)nc3)C2)cn1 (stereo partly drawn) [Example 636, 6-chloro-7-((2R)-2-(((3-chloro-6-methoxypyridin-2-yl)oxy)methyl)-4-(6-methoxypyridin-3-yl)pyrrolidin-1-yl)-1-(6-(3-(dimethylamino)azetidin-1-yl)pyridin-3-yl)-4-oxo-1,4-dihydroquinoline-3-carboxylic acid] | –
1000 to 10000 | O=C(O)c1cn(C2CC2)c2cc(N3CCC[C@@H]3COc3ccccn3)c(F)cc2c1=O [Example 447, (R)-1-cyclopropyl-6-fluoro-4-oxo-7-(2-((pyridin-2-yloxy)methyl)pyrrolidin-1-yl)-1,4-dihydroquinoline-3-carboxylic acid] | –
– | Cc1cccnc1OC[C@H]1CCCN1c1cc2c(cc1F)c(=O)c(C(=O)O)cn2-c1ccccc1 [Example 5, (R)-6-fluoro-7-(2-(((3-methylpyridin-2-yl)oxy)methyl)pyrrolidin-1-yl)-4-oxo-1-phenyl-1,4-dihydroquinoline-3-carboxylic acid] | IC50 [2]: ≤ 1000 nM
– | Cc1cccnc1OC[C@H]1CCCN1c1cc2c(cc1Cl)c(=O)c(C(=O)O)cn2-c1ccc(O)cc1 [Compound 104, (R)-6-chloro-1-(4-hydroxy-phenyl)-7-(2-(((3-methyl-pyridin-2-yl)oxy)methyl)pyrrolidin-1-yl)-4-oxo-1,4-dihydro-quinoline-3-carboxylic acid] | IC50 [3]: ≤ 1000 nM
– | COc1ccc(Cl)c(OCC2N(c3cc4c(cc3Cl)c(=O)c(C(=O)O)cn4-c3ccc(N4CC(N(C)C)C4)nc3)CCC2(C)C)n1 (centres unmarked) [Compound 257, 6-chloro-7-(2-{[(3-chloro-6-methoxy-pyridin-2-yl)oxy]methyl}-3,3-dimethyl-pyrrolidin-1-yl)-1-{6-[3-(dimethyl-amino)azetidin-1 yl]pyridin-3-yl}-4-oxoquinoline-3-carboxylic acid] | IC50 [3]: ≤ 1000 nM
